Measured values from patent US12570604B2, “Polymorphic forms of a tetracycline compound and uses thereof” (Tetraphase Pharmaceuticals, Inc., priority 2018, dated 2026).

Columns and labels:
[1] = Dynamic vapor sorption (DVS) of crystalline Forms C and D; format: physicochemical; details: for DVS rapid weight gain: in the range of 25-35% RH; for DVS low weight gain: in the range of 35-75% RH
Protocol: (§1) The crystalline forms provided can be additionally characterized by dynamic vapor sorption (DVS), wherein a sample is subjected to varying conditions of humidity and temperature, and the response of the sample is measured gravimetrically. The result of a DVS analysis particularly can be a dual curve providing sample weight percent as a function of relative humidity (RH) over time, a dual curve providing sample water content as a function of RH over time, a curve providing weight percent in relation to RH, or a curve providing water content in relation to RH. Equipment useful for measuring such data is known in the art, and any such equipment can be used to measure the compounds according to the present invention. In certain embodiments, DVS analysis can be carried out by scanning at a series of specific RH values. Thus, specific polymorphs according to the invention may be identified and described in relation to the representative graph and/or the approximate peaks obtained in DVS analysis, particularly scanning from 0% to 95% RH with a step interval of 5% or 10% RH.
DVS data for the crystalline Forms C and D were collected on a Surface Measurement System DVS Intrinsic instrument. Samples were not dried prior to analysis. Sorption and desorption data were collected over a range from 5% to 95% RH at 10% RH increments under a nitrogen purge. The equilibrium criterion used for analysis was less than 0.0100% weight change in 5 minutes with a maximum equilibration time of 3 hours. Data were not corrected for the initial moisture content of the samples.

[2] = Dynamic vapor sorption (DVS) of crystalline Forms A and B; format: physicochemical; details: 25° C., adsorption range 0% to 95% RH
Protocol: as §1
DVS pattern for the crystalline Forms A and B was generated at 25° C. using a DVS Moisture Balance Flow System (Model Advantage) with the following conditions: sample size approximately 10 to 20 mg, drying at 25° C. for 60 minutes, adsorption range 0% to 95% RH, desorption range 95% to 0% RH, and step interval 5% RH. […]

DVS total weight gain ([1]; between 5 and 95% RH) | DVS weight gain ([1]; in the range of 5-25% RH) | DVS rapid weight gain [1] | DVS low weight gain [1] | DVS weight gain ([1]; in the range of 35-45% RH) | DVS weight gain ([2]; at 75% RH) | DVS weight gain ([2]; at 95% RH) | SMILES
about 39.2% | about 2.7% | about 10% | about 3.7% | – | – | – | CN(C)[C@@H]1C(O)=C(C(N)=O)C(=O)[C@@]2(O)C(O)=C3C(=O)c4c(O)c(NC(=O)[C@@H]5CCCN5C)cc(F)c4C[C@H]3C[C@@H]12 [Form D, (S)—N-((5aR,6aS,7S,10aS)-9-carbamoyl-7-(dimethylamino)-4-fluoro-1,8,10a,11-tetrahydroxy-10,12-dioxo-5,5a,6,6a,7,10,10a,12-octahydrotetracen-2-yl)-1-methylpyrrolidine-2-carboxamide]
– | about 2.7% | about 10% | about 3.7% | about 6.1% | – | – | CN(C)[C@@H]1C(O)=C(C(N)=O)C(=O)[C@@]2(O)C(O)=C3C(=O)c4c(O)c(NC(=O)[C@@H]5CCCN5C)cc(F)c4C[C@H]3C[C@@H]12 [Form C, (S)—N-((5aR,6aS,7S,10aS)-9-carbamoyl-7-(dimethylamino)-4-fluoro-1,8,10a,11-tetrahydroxy-10,12-dioxo-5,5a,6,6a,7,10,10a,12-octahydrotetracen-2-yl)-1-methylpyrrolidine-2-carboxamide]
– | – | – | – | – | about 19% | about 40% | CN(C)[C@@H]1C(O)=C(C(N)=O)C(=O)[C@@]2(O)C(O)=C3C(=O)c4c(O)c(NC(=O)[C@@H]5CCCN5C)cc(F)c4C[C@H]3C[C@@H]12 [Form A, (S)—N-((5aR,6aS,7S,10aS)-9-carbamoyl-7-(dimethylamino)-4-fluoro-1,8,10a,11-tetrahydroxy-10,12-dioxo-5,5a,6,6a,7,10,10a,12-octahydrotetracen-2-yl)-1-methylpyrrolidine-2-carboxamide]
